Source: ChEMBL document CHEMBL1201862, “PubChem BioAssay data set” (2004)
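Tested at 5 concentrations; 48 h exposure; 96-well plates; endpoints linearly interpolated, else capped at highest concentration. At the GI50, growth is halved.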 Calls of active or inactive are those of the source. Cut-off read from the data, not from the text of the source: active = GI50 up to about 1.1 µM and inactive = higher.

Columns and labels:
Assay in all cases: DTP human tumour cell line panel, 48 h
A498 = test system: A498
MDA-MB-435 = test system: MDA-MB-435
BT-549 = test system: BT-549
SF-539 = test system: SF-539
SK-MEL-28 = test system: SK-MEL-28
MDA-MB-231 = test system: MDA-MB-231
IGROV-1 = test system: IGROV-1
MOLT-4 = test system: MOLT-4
HOP-62 = test system: HOP-62
NCI-H23 = test system: NCI-H23
CAKI-1 = test system: CAKI-1
OVCAR-4 = test system: OVCAR-4
OVCAR-8 = test system: OVCAR-8
HT-29 = test system: HT-29
SF-268 = test system: SF-268
Hs-578T = test system: Hs-578T
T47D = test system: T47D
HCT-116 = test system: HCT-116
NCI-H226 = test system: NCI-H226
RXF 393 = test system: RXF 393
SK-MEL-2 = test system: SK-MEL-2
NCI-H460 = test system: NCI-H460
CCRF-CEM = test system: CCRF-CEM
EKVX = test system: EKVX
ACHN = test system: ACHN
HOP-92 = test system: HOP-92
SW-620 = test system: SW-620
SR = test system: SR
HCT-15 = test system: HCT-15
DU-145 = test system: DU-145
U-251 = test system: U-251
K562 = test system: K562
NCI/ADR-RES = test system: NCI/ADR-RES
M14 = test system: M14
MDA-N = test system: MDA-N
SNB-19 = test system: SNB-19
786-0 = test system: 786-0
RPMI-8226 = test system: RPMI-8226
LOX IMVI = test system: LOX IMVI
OVCAR-3 = test system: OVCAR-3
SK-MEL-5 = test system: SK-MEL-5
UACC-257 = test system: UACC-257
SN12C = test system: SN12C
SF-295 = test system: SF-295
KM12 = test system: KM12
HCC 2998 = test system: HCC 2998
A549 = test system: A549
UO-31 = test system: UO-31
Malme-3M = test system: Malme-3M
NCI-H522 = test system: NCI-H522
UACC-62 = test system: UACC-62
OVCAR-5 = test system: OVCAR-5
TK-10 = test system: TK-10
MCF7 = test system: MCF7
PC-3 = test system: PC-3
COLO 205 = test system: COLO 205
SNB-75 = test system: SNB-75
SK-OV-3 = test system: SK-OV-3
HL-60 = test system: HL-60

O=C(Nc1ccc2ncccc2c1)Nc1ccc2ncccc2c1
GI50 (A498): > 100 µM (inactive)
GI50 (MDA-MB-435): > 100 µM (inactive)
GI50 (BT-549): > 100 µM (inactive)
GI50 (SF-539): > 100 µM (inactive)
GI50 (SK-MEL-28): > 100 µM (inactive)
GI50 (MDA-MB-231): > 100 µM (inactive)
GI50 (IGROV-1): > 100 µM (inactive)
GI50 (MOLT-4): > 100 µM (inactive)
GI50 (HOP-62): > 100 µM (inactive)
GI50 (NCI-H23): > 100 µM (inactive)
GI50 (CAKI-1): > 100 µM (inactive)
GI50 (OVCAR-4): > 100 µM (inactive)
GI50 (OVCAR-8): > 100 µM (inactive)
GI50 (HT-29): > 100 µM (inactive)
GI50 (SF-268): > 100 µM (inactive)
GI50 (Hs-578T): > 100 µM (inactive)
GI50 (T47D): > 100 µM (inactive)
GI50 (HCT-116): > 100 µM (inactive)
GI50 (NCI-H226): > 100 µM (inactive)
GI50 (RXF 393): > 100 µM (inactive)
GI50 (SK-MEL-2): > 100 µM (inactive)
GI50 (NCI-H460): > 100 µM (inactive)
GI50 (CCRF-CEM): > 100 µM (inactive)
GI50 (EKVX): > 100 µM (inactive)
GI50 (ACHN): > 100 µM (inactive)
GI50 (HOP-92): > 100 µM (inactive)
GI50 (SW-620): > 100 µM (inactive)
GI50 (SR): > 100 µM (inactive)
GI50 (HCT-15): > 100 µM
GI50 (DU-145): > 100 µM (inactive)
GI50 (U-251): > 100 µM (inactive)
GI50 (K562): > 100 µM (inactive)
GI50 (NCI/ADR-RES): > 100 µM (inactive)
GI50 (M14): > 100 µM (inactive)
GI50 (MDA-N): > 100 µM (inactive)
GI50 (SNB-19): > 100 µM (inactive)
GI50 (786-0): > 100 µM (inactive)
GI50 (RPMI-8226): > 100 µM (inactive)
GI50 (LOX IMVI): > 100 µM (inactive)
GI50 (OVCAR-3): > 100 µM (inactive)
GI50 (SK-MEL-5): > 100 µM (inactive)
GI50 (UACC-257): > 100 µM (inactive)
GI50 (SN12C): > 100 µM (inactive)
GI50 (SF-295): > 100 µM (inactive)
GI50 (KM12): > 100 µM (inactive)
GI50 (HCC 2998): > 100 µM (inactive)
GI50 (A549): > 100 µM (inactive)
GI50 (UO-31): > 100 µM (inactive)
GI50 (Malme-3M): > 100 µM (inactive)
GI50 (NCI-H522): > 100 µM (inactive)
GI50 (UACC-62): > 100 µM (inactive)
GI50 (OVCAR-5): > 100 µM (inactive)
GI50 (TK-10): > 100 µM (inactive)
GI50 (MCF7): > 100 µM (inactive)
GI50 (PC-3): > 100 µM (inactive)
GI50 (COLO 205): > 100 µM (inactive)
GI50 (SNB-75): > 100 µM (inactive)
GI50 (SK-OV-3): > 100 µM (inactive)

COc1cc(C(=O)/C=C/c2ccc(OCCSCCCCCCCCCCSCCOc3ccc(/C=C/C(=O)c4cc(OC)c(OC)c(OC)c4)cc3)cc2)cc(OC)c1OC
GI50 (A498): > 100 µM (inactive)
GI50 (MDA-MB-435): > 100 µM (inactive)
GI50 (BT-549): > 100 µM (inactive)
GI50 (SF-539): > 100 µM (inactive)
GI50 (SK-MEL-28): > 100 µM (inactive)
GI50 (MDA-MB-231): > 100 µM (inactive)
GI50 (HL-60): > 100 µM (inactive)
GI50 (IGROV-1): > 100 µM (inactive)
GI50 (MOLT-4): > 100 µM (inactive)
GI50 (HOP-62): > 100 µM (inactive)
GI50 (NCI-H23): > 100 µM (inactive)
GI50 (CAKI-1): > 100 µM (inactive)
GI50 (OVCAR-8): > 100 µM (inactive)
GI50 (HT-29): > 100 µM (inactive)
GI50 (SF-268): > 100 µM (inactive)
GI50 (Hs-578T): > 100 µM (inactive)
GI50 (T47D): > 100 µM (inactive)
GI50 (HCT-116): > 100 µM (inactive)
GI50 (RXF 393): > 100 µM (inactive)
GI50 (SK-MEL-2): > 100 µM (inactive)
GI50 (CCRF-CEM): > 100 µM (inactive)
GI50 (EKVX): > 100 µM (inactive)
GI50 (ACHN): > 100 µM (inactive)
GI50 (HOP-92): > 100 µM (inactive)
GI50 (SW-620): > 100 µM (inactive)
GI50 (SR): > 100 µM (inactive)
GI50 (HCT-15): > 100 µM
GI50 (DU-145): > 100 µM (inactive)
GI50 (U-251): > 100 µM (inactive)
GI50 (K562): > 100 µM (inactive)
GI50 (NCI/ADR-RES): > 100 µM (inactive)
GI50 (M14): > 100 µM (inactive)
GI50 (MDA-N): > 100 µM (inactive)
GI50 (SNB-19): > 100 µM (inactive)
GI50 (786-0): > 100 µM (inactive)
GI50 (RPMI-8226): > 100 µM (inactive)
GI50 (LOX IMVI): > 100 µM (inactive)
GI50 (OVCAR-3): > 100 µM (inactive)
GI50 (SK-MEL-5): > 100 µM (inactive)
GI50 (SN12C): > 100 µM (inactive)
GI50 (SF-295): > 100 µM (inactive)
GI50 (KM12): > 100 µM (inactive)
GI50 (HCC 2998): > 100 µM (inactive)
GI50 (A549): > 100 µM (inactive)
GI50 (UO-31): > 100 µM (inactive)
GI50 (Malme-3M): > 100 µM (inactive)
GI50 (NCI-H522): > 100 µM (inactive)
GI50 (UACC-62): > 100 µM (inactive)
GI50 (OVCAR-5): > 100 µM (inactive)
GI50 (TK-10): > 100 µM (inactive)
GI50 (MCF7): > 100 µM (inactive)
GI50 (PC-3): > 100 µM (inactive)
GI50 (COLO 205): > 100 µM (inactive)
GI50 (SNB-75): > 100 µM (inactive)
